Data on two compounds can be found in PMC5485393, “Tailored chondroitin sulfate glycomimetics via a tunable multivalent scaffold for potentiating NGF/TrkA-induced neurogenesis” (Chemical Science, 2014).

Molecules are shown by their SMILES.

In the experiment the target is NGF (Homo sapiens, UniProt P01138). As to the kind of experiment: SPR (Biacore T100) kinetic analysis of NGF binding to immobilized glycopeptides. To be noted: for kon: read-out: association rate constant ka of NGF binding (SPR), SEM. On the technique in general: In SPR one partner is held on a chip, and binding of the other changes the refractive index at the surface.
NGF, sequence (P01138 122-241): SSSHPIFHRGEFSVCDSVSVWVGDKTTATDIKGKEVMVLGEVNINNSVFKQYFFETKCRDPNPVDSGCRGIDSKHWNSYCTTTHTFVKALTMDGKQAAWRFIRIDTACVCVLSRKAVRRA

Procedure: SPR technology was employed to facilitate quantitative, real-time kinetic analysis of glycopeptide–NGF binding. Biotinylated glycopeptides and CS-E polysaccharides were immobilized on streptavidin-coated surface at normalized levels by molecular weights, and the interactions with NGF were investigated as a function of NGF concentration.
Surface Plasmon Resonance (SPR): Affinity measurements were performed using a Biacore T100
system (GE Healthcare). The CM5 sensor chip was used for all measurements. The sensor was primed
with HBS-EP+ (10 mM HEPES pH 7.4, 150 mM NaCl, 3.4 mM EDTA, 0.005% P20, GE Healthcare)
buffer and was activated using amine coupling through 1:1 mixture of 0.4 M EDC and 0.1 M NHS.
Streptavidin solution (0.008mg/ml) in Acetate 5.0 buffer (GE Healthcare) was used and remaining
activated groups were blocked with 1 M solution of ethanolamine (pH 8.5). The final amount of
streptavidin covalently immobilized on the surface was typically 700 RU. Flow cell 1 (or 3) was used as a
reference to subtract nonspecific binding, drift, and the bulk refractive index, while flow cell 2 (or 4) was
further immobilized with either glycopeptides or CS-E polysaccharides. Either biotinylated glycopeptides
or CS-E polysaccharides (20 nM) were dissolved in HBS-EP+ buffer and were injected to flow cell 2 (or
4) at 30 µL/min until the baseline response increased by 104, 127, and 110 RU, for glycopeptide 5, 1, and
CS-E polysaccharides, respectively. For a given affinity measurement, these series of peptide solutions
were successively injected into the flow cells for 240 seconds of contact time and 800 seconds of
dissociation time using a flow rate of 50 μL/min at 25 °C. Flow cell was regenerated using 2.5 M MgCl2
at 30 μL/min. Association (ka) and dissociation (kd) rate constants were calculated with a 1:1 binding
model using Biacore evaluation software, and KD values were calculated from the ratio of kd to ka. Kinetic

For orientation: Kd means the constant that tells how readily two partners part at equilibrium. `COC(=O)[C@@H]1C[C@@H](n2cc(CO[C@@H]3O[C@H](COS(=O)(=O)O)[C@H](OS(=O)(=O)O)[C@H](O[C@@H]4O[C@H](C(=O)O)[C@@H](O)[C@H](O)[C@H]4O)[C@H]3NC(C)=O)nn2)CN1C(=O)[C@@H]1C[C@@H](n2cc(CO[C@@H]3O[C@H](COS(=O)(=O)O)[C@H](OS(=O)(=O)O)[C@H](O[C@@H]4O[C@H](C(=O)O)[C@@H](O)[C@H](O)[C@H]4O)[C@H]3NC(C)=O)nn2)CN1C(=O)[C@@H]1C[C@@H](n2cc(CO[C@@H]3O[C@H](COS(=O)(=O)O)[C@H](OS(=O)(=O)O)[C@H](O[C@@H]4O[C@H](C(=O)O)[C@@H](O)[C@H](O)[C@H]4O)[C@H]3NC(C)=O)nn2)CN1C(=O)[C@@H]1C[C@@H](n2cc(CO[C@@H]3O[C@H](COS(=O)(=O)O)[C@H](OS(=O)(=O)O)[C@H](O[C@@H]4O[C@H](C(=O)O)[C@@H](O)[C@H](O)[C@H]4O)[C@H]3NC(C)=O)nn2)CN1C(=O)[C@@H]1C[C@@H](n2cc(CO[C@@H]3O[C@H](COS(=O)(=O)O)[C@H](OS(=O)(=O)O)[C@H](O[C@@H]4O[C@H](C(=O)O)[C@@H](O)[C@H](O)[C@H]4O)[C@H]3NC(C)=O)nn2)CN1C(=O)[C@@H]1C[C@@H](n2cc(CO[C@@H]3O[C@H](COS(=O)(=O)O)[C@H](OS(=O)(=O)O)[C@H](O[C@@H]4O[C@H](C(=O)O)[C@@H](O)[C@H](O)[C@H]4O)[C@H]3NC(C)=O)nn2)CN1C(=O)[C@@H]1C[C@@H](n2cc(CO[C@@H]3O[C@H](COS(=O)(=O)O)[C@H](OS(=O)(=O)O)[C@H](O[C@@H]4O[C@H](C(=O)O)[C@@H](O)[C@H](O)[C@H]4O)[C@H]3NC(C)=O)nn2)CN1C(=O)[C@@H]1C[C@@H](n2cc(CO[C@@H]3O[C@H](COS(=O)(=O)O)[C@H](OS(=O)(=O)O)[C@H](O[C@@H]4O[C@H](C(=O)O)[C@@H](O)[C@H](O)[C@H]4O)[C@H]3NC(C)=O)nn2)CN1C(=O)[C@@H]1C[C@@H](n2cc(CO[C@@H]3O[C@H](COS(=O)(=O)O)[C@H](OS(=O)(=O)O)[C@H](O[C@@H]4O[C@H](C(=O)O)[C@@H](O)[C@H](O)[C@H]4O)[C@H]3NC(C)=O)nn2)CN1C(=O)[C@@H]1C[C@@H](n2cc(CO[C@@H]3O[C@H](COS(=O)(=O)O)[C@H](OS(=O)(=O)O)[C@H](O[C@@H]4O[C@H](C(=O)O)[C@@H](O)[C@H](O)[C@H]4O)[C@H]3NC(C)=O)nn2)CN1C(=O)[C@@H]1C[C@@H](n2cc(CO[C@@H]3O[C@H](COS(=O)(=O)O)[C@H](OS(=O)(=O)O)[C@H](O[C@@H]4O[C@H](C(=O)O)[C@@H](O)[C@H](O)[C@H]4O)[C@H]3NC(C)=O)nn2)CN1C(=O)[C@@H]1C[C@@H](n2cc(CO[C@@H]3O[C@H](COS(=O)(=O)O)[C@H](OS(=O)(=O)O)[C@H](O[C@@H]4O[C@H](C(=O)O)[C@@H](O)[C@H](O)[C@H]4O)[C@H]3NC(C)=O)nn2)CN1C(=O)CCOCCOCCOCCOCCOCCOCCOCCOCCOCCOCCOCCOCCNC(=O)CCCC[C@@H]1SC[C@@H]2NC(=O)N[C@@H]21` [compound 1]: binding was characterised by a dissociation constant (Kd) of 3570 nM and the kon was 346 M⁻¹ s⁻¹.
In the same order, the values of `COC(=O)[C@@H]1C[C@@H](n2cc(CO[C@@H]3O[C@H](COS(=O)(=O)O)[C@H](OS(=O)(=O)O)[C@H](O[C@@H]4O[C@H](C(=O)O)[C@@H](O)[C@H](O)[C@H]4O)[C@H]3NC(C)=O)nn2)CN1C(=O)[C@@H]1CCCN1C(=O)[C@@H]1CCCN1C(=O)[C@@H]1C[C@@H](n2cc(CO[C@@H]3O[C@H](COS(=O)(=O)O)[C@H](OS(=O)(=O)O)[C@H](O[C@@H]4O[C@H](C(=O)O)[C@@H](O)[C@H](O)[C@H]4O)[C@H]3NC(C)=O)nn2)CN1C(=O)[C@@H]1CCCN1C(=O)[C@@H]1CCCN1C(=O)[C@@H]1C[C@@H](n2cc(CO[C@@H]3O[C@H](COS(=O)(=O)O)[C@H](OS(=O)(=O)O)[C@H](O[C@@H]4O[C@H](C(=O)O)[C@@H](O)[C@H](O)[C@H]4O)[C@H]3NC(C)=O)nn2)CN1C(=O)[C@@H]1CCCN1C(=O)[C@@H]1CCCN1C(=O)[C@@H]1C[C@@H](n2cc(CO[C@@H]3O[C@H](COS(=O)(=O)O)[C@H](OS(=O)(=O)O)[C@H](O[C@@H]4O[C@H](C(=O)O)[C@@H](O)[C@H](O)[C@H]4O)[C@H]3NC(C)=O)nn2)CN1C(=O)[C@@H]1CCCN1C(=O)[C@@H]1CCCN1C(=O)[C@@H]1C[C@@H](n2cc(CO[C@@H]3O[C@H](COS(=O)(=O)O)[C@H](OS(=O)(=O)O)[C@H](O[C@@H]4O[C@H](C(=O)O)[C@@H](O)[C@H](O)[C@H]4O)[C@H]3NC(C)=O)nn2)CN1C(=O)[C@@H]1CCCN1C(=O)[C@@H]1CCCN1C(=O)[C@@H]1C[C@@H](n2cc(CO[C@@H]3O[C@H](COS(=O)(=O)O)[C@H](OS(=O)(=O)O)[C@H](O[C@@H]4O[C@H](C(=O)O)[C@@H](O)[C@H](O)[C@H]4O)[C@H]3NC(C)=O)nn2)CN1C(=O)[C@@H]1CCCN1C(=O)[C@@H]1CCCN1C(=O)[C@@H]1C[C@@H](n2cc(CO[C@@H]3O[C@H](COS(=O)(=O)O)[C@H](OS(=O)(=O)O)[C@H](O[C@@H]4O[C@H](C(=O)O)[C@@H](O)[C@H](O)[C@H]4O)[C@H]3NC(C)=O)nn2)CN1C(=O)[C@@H]1CCCN1C(=O)[C@@H]1CCCN1C(=O)[C@@H]1C[C@@H](n2cc(CO[C@@H]3O[C@H](COS(=O)(=O)O)[C@H](OS(=O)(=O)O)[C@H](O[C@@H]4O[C@H](C(=O)O)[C@@H](O)[C@H](O)[C@H]4O)[C@H]3NC(C)=O)nn2)CN1C(=O)[C@@H]1CCCN1C(=O)[C@@H]1CCCN1C(=O)[C@@H]1C[C@@H](n2cc(CO[C@@H]3O[C@H](COS(=O)(=O)O)[C@H](OS(=O)(=O)O)[C@H](O[C@@H]4O[C@H](C(=O)O)[C@@H](O)[C@H](O)[C@H]4O)[C@H]3NC(C)=O)nn2)CN1C(=O)[C@@H]1CCCN1C(=O)[C@@H]1CCCN1C(=O)[C@@H]1C[C@@H](n2cc(CO[C@@H]3O[C@H](COS(=O)(=O)O)[C@H](OS(=O)(=O)O)[C@H](O[C@@H]4O[C@H](C(=O)O)[C@@H](O)[C@H](O)[C@H]4O)[C@H]3NC(C)=O)nn2)CN1C(=O)[C@@H]1CCCN1C(=O)[C@@H]1CCCN1C(=O)[C@@H]1C[C@@H](n2cc(CO[C@@H]3O[C@H](COS(=O)(=O)O)[C@H](OS(=O)(=O)O)[C@H](O[C@@H]4O[C@H](C(=O)O)[C@@H](O)[C@H](O)[C@H]4O)[C@H]3NC(C)=O)nn2)CN1C(=O)[C@@H]1CCCN1C(=O)[C@@H]1CCCN1C(=O)[C@@H]1C[C@@H](n2cc(CO[C@@H]3O[C@H](COS(=O)(=O)O)[C@H](OS(=O)(=O)O)[C@H](O[C@@H]4O[C@H](C(=O)O)[C@@H](O)[C@H](O)[C@H]4O)[C@H]3NC(C)=O)nn2)CN1C(=O)[C@@H]1CCCN1C(=O)[C@@H]1CCCN1C(=O)CCOCCOCCOCCOCCOCCOCCOCCOCCOCCOCCOCCOCCNC(=O)CCCC[C@@H]1SC[C@@H]2NC(=O)N[C@@H]21` [compound 5] are 146 nM and 13400 M⁻¹ s⁻¹.
